{
  "source": "patent US12611400B2",
  "about": "“Solid lipid nano-composition containing berberine and cinnamonaldehyde effective in treating diabetes, dyslipidemia, and method of preparing the same” (priority 2020, dated 2026)",
  "test_system": "white mouse models of P-407-induced dyslipidemia",
  "assay": "Dyslipidemia regulation effects in P-407-induced endogenous dyslipidemia model in white mice",
  "type": "in vivo",
  "conditions": "oral 100 mg/kg, 7 days; for Total cholesterol: Reduction in comparison with the model batch: 100 mg/kg",
  "protocol": "The test on white mice was divided into 5 batches, each batch having 10 animals. The batches were subjected to injection and oral administration as follows: • Batch 1 (biological control): 0.9% saline was intraperitoneally injected at a volume of 0.1 mL/10 g mouse body weight and 0.2 mL/10 g distilled water was orally administered. • Batch 2 (model): 2% P-407 solution was intraperitoneally injected at 200 mg/kg (0.1 mL/10 g), and 0.2 mL/10 g distilled water was orally administered. • Batch 3 (positive control): 2% P-407 solution was intraperitoneally injected at 200 mg/kg (0.1 mL/10 g), and 100 mg/kg (0.2 mL/10 g) atorvastatin was orally administered. • Batch 4: 2% P-407 solution was intraperitoneally injected at 200 mg/kg (0.1 mL/10 g), the composition was orally administered at 0.24 g/kg/day (equivalent to the clinical intended dose), at 0.2 mL/10 g. • Batch 5: 2% P-407 solution was intraperitoneally injected at 200 mg/kg dose (0.1 mL/10 g), the composition was orally administered at dosage 0.72 g/kg/day (3 times as much as the clinical intended dose), at 0.2 mL/10 g.\nWhite mice were subjected to oral administration of distilled water and the sample drug in 7 continuous days before the intraperitoneal injection with P-407 solution. After P-407 injection, the mice were left to starve completely but were free to drink water. After 24 hours from the P-407 injection, all of the mice received carotid arterial blood sampling for TG, TC, and HDL-C quantitative testing. Non-HDL-C levels were calculated based on the following formula: Non-HDL-C=TC−HDL-C (mmol/L) Test Results Total Cholesterol Levels",
  "key": {"[1]": {"conditions": "white mouse blood, 24 h after P-407 200 mg/kg i.p., n = 10"}},
  "data": [
    {"smiles": "CC(C)c1c(C(=O)Nc2ccccc2)c(-c2ccccc2)c(-c2ccc(F)cc2)n1CC[C@@H](O)C[C@@H](O)CC(=O)O", "note": "[Atorvastatin, atorvastatin]", "values": [
      {"measurement": "Non-HDL-cholesterol level", "setting": "Non-HDL-C=TC−HDL-C, white mouse blood, 24 h after P-407, n = 10", "value": "6.08 ± 0.88", "unit": "mmol/L"},
      {"measurement": "Non-HDL-cholesterol: Reduction in comparison with the model", "setting": "P-407 model", "value": 12.1, "unit": "%"},
      {"measurement": "Total cholesterol: Reduction in comparison with the model batch", "setting": "P-407 model", "value": 5.7, "unit": "%"},
      {"measurement": "HDL-C level change versus model batch (↑ increase)", "setting": "P-407 model, given with ↑", "value": "(↑ 19.1%)"},
      {"measurement": "Total cholesterol: Reduction in comparison with the model batch", "setting": "P-407 model, listed as atorvastatin", "value": 5.7, "unit": "%"},
      {"measurement": "Triglyceride: Reduction in comparison with the model batch", "setting": "P-407 model, negative = increase", "value": "−46.3", "unit": "%"},
      {"measurement": "HDL-C level", "setting": "[1]", "value": "2.12 ± 0.41", "unit": "mmol/L"},
      {"measurement": "Total cholesterol level", "setting": "[1]", "value": "8.20 ± 1.01", "unit": "mmol/L"},
      {"measurement": "Triglyceride level", "setting": "[1]", "value": "9.77 ± 1.05", "unit": "mmol/L"}
    ]}
  ]
}
